{"source": "patent US20050119124A1", "about": "“Phosphorus and potassium fertilizer for all forms of perennial trees, vines and annual crops” (priority 1999, published 2005)", "origin": "cited, not measured here", "settings": "18C"}
{"smiles": "OP(O)O", "note": "[Phosphorous acid, phosphorous acid]", "values": [{"measurement": "pK, first acid group", "result": 2.00}, {"measurement": "pK, second acid group", "result": 6.59}]}
